From patent US20250109140A1, “5-[5-(PIPERIDIN-4-YL)THIENO[3,2-C]PYRAZOL-2-YL]INDAZOLE DERIVATIVES AND RELATED COMPOUNDS AS MODULATORS FOR SPLICING NUCLEIC ACIDS AND FOR THE TREATMENT OF PROLIFERATIVE DISEASES” (REMIX THERAPUTICS INC., priority 2022, published 2025)
Read-outs that look alike come from different tables or passages of the source.

Experiments:
Target C = experiment: HiBiT protein abundance assay, Target C (K562 HiBiT knock-in cells); assay type: cell-based, human; conditions: 24 hours treatment
Experimental: • Promega Nano-Glo HiBiT Lytic Detection System (cat #N3030) • Corning 384-well TC-treated microplates (cat #3570) • Synthego Engineered Cells Knock-In Clones
(§1) Cells were maintained in IMDM with 10% FBS. Before the assay, cells were diluted with […] growth media (IMDM+[…] media) and were seeded in a 384-well plate at a density of 10000 cells/well (for each cell line listed in Table 6). Each compound was prepared as a 10-point 3-fold serial dilution in DMSO with the top dose at a final concentration of […] in the well. Unmodified K562 cells were added at the previously specified density with DMSO to serve as an assay baseline and positive control (PC) and DMSO only with the respective modified cell lines was added to the negative control (NC) columns. Final DMSO concentration was kept at or below 0.25%. Treated cell plates were placed in an incubator at 37° C. with […] for 24 hours. After 24 hours, 25 μL of Complete HiflitLytic reagent was added to each well at room temperature (e.g. one plate requiring 10 mL Lytic Buffer, 100 μL LgBiT Protein, 200 μL Lytic Substrate), shaken for 5 minutes at 600 RPM, then left to sit for 10 minutes for signal to stabilize before reading on a Spark Cyto plate reader (Tecan) with a 500 ms measurement time.
(§2) To determine compound effects on protein abundance of each target in Table 6, the percent response for each respective cell line was calculated at each compound concentration as follows:
(§3) For the normalized response at each concentration, a four-parameter logistical regression was fit to the data and the response was interpolated at the 50% value to determine a concentration for protein abundance at 50% (IC50) the untreated control.

HTT mRNA = experiment: Splicing RT-qPCR assay, HTT canonical (CJ) and alternative (AJ) junction mRNA; assay type: cell-based; conditions: Homo sapiens; for EC50: AC50 = 50% response in AJ mRNA increase
Outline: (§4)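 A673/K562; 11-pt 3-fold dil., top 10 uM final, ≤0.25% DMSO; 24 h, 37 °C, 5% CO2. Lysis, then RT-qPCR of CJ/AJ isoforms, ≥duplicate. ΔCt vs housekeeper (GAPDH/GUSB/PPIA), ΔΔCt vs DMSO, RQ = 2^(−ΔΔCt), expressed as % response.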

HiBiT-tagged MYB protein = experiment: HiBiT protein abundance assay, MYB (K562 HiBiT knock-in cells); assay type: cell-based, human; conditions: 24 hours treatment
Experimental: (§5) Compounds described herein were used to screen for effects on quantitative protein abundance using a HiBit assay system (Promega). Quantitative protein abundance was determined by measuring the protein levels of HiBit-tagged protein targets expressed in cell culture via luminescence using the Nano-Glo HiBiT Lytic Detection System, which uses a split complementation assay format to reconstitute NanoBiT enzyme to generate a luminescent signal. A protein abundance assay was developed such that endogenous protein targets could be modified with the HiBiT peptide tag and their abundance could be assessed after compound treatment. Briefly, K562 cell lines containing a HiBiT-modification were treated with various compounds described herein (e.g., compounds of Formulas (I), or (II)). After treatment for 24 hours, the protein abundance of a specific target was determined by measuring luminescence.
as §1, §2, §3

[1] = tested on: K562 (human chronic myelogenous leukemia) cells; experiment: Cell viability, Cell Titer Glo 2.0 assay, K562 cells; assay type: cell-based; conditions: 72 hours
Experimental: Compounds described herein were screened for toxicity in K562 (human chronic myelogenous leukemia) and SH-SY5Y (human neuroblastoma) cells using a Cell Titer Glo 2.0 assay.
Cells were plated at 500 cells/well (K562 cells) in 45 μL of IMDM supplemented with 10% FBS in a 384-well opaque plate. Wells containing only medium were used as a blank control. Test compounds (e.g., compounds of Formula (I), (III), (IV), (V), or (VI)) were first serially diluted in DMSO then diluted 1:100 with IMDM+10% FBS. The final concentration of DMSO was 0.1% in each well. The cells were incubated for 72 hours at 37° C. and 5% CO2 before assaying with Cell Titer Glo 2.0 reagent.

SMN2 mRNA = experiment: Splicing RT-qPCR gene panel, SMN2 canonical junction (CJ) mRNA; assay type: cell-based; conditions: Homo sapiens; Table 8; larger gene panel, decrease in CJ mRNA levels
Outline: as §4

Target C mRNA = experiment: Splicing RT-qPCR gene panel, Target C canonical junction (CJ) mRNA; assay type: cell-based; conditions: Homo sapiens; Table 8; larger gene panel, decrease in CJ mRNA levels
Outline: as §4

MYB mRNA = experiment: Splicing RT-qPCR assay, MYB canonical (CJ) and alternative (AJ) junction mRNA; assay type: cell-based; conditions: Homo sapiens; for EC50: AC50 = 50% response in AJ mRNA increase
Outline: as §4

HiBiT-tagged HTT protein = experiment: HiBiT protein abundance assay, HTT (K562 HiBiT knock-in cells); assay type: cell-based, human; conditions: 24 hours treatment
Experimental: as §5, §1, §2, §3

[2] = Table 7, RT-qPCR, A673 or K562 cells, 24 hours treatment
[3] = Table 7, IC50 = 50% response in CJ mRNA decrease, RT-qPCR, A673 or K562 cells, 24 hours treatment, read-out: HTT CJ
[4] = Table 8, larger gene panel, decrease in CJ mRNA levels, read-out: HTT CJ IC50
[5] = Table 7, IC50 = 50% response in CJ mRNA decrease, RT-qPCR, A673 or K562 cells, 24 hours treatment, read-out: MYB CJ
[6] = Table 8, larger gene panel, decrease in CJ mRNA levels, read-out: MYB CJ IC50

| SMILES | IC50 (Target C) | EC50 (HTT mRNA; [2]) | IC50 (HTT mRNA; [3]) | IC50 (HTT mRNA; [4]) | IC50 (HiBiT-tagged MYB protein) | IC50 [1] | IC50 (SMN2 mRNA) | IC50 (Target C mRNA) | EC50 (MYB mRNA; [2]) | IC50 (MYB mRNA; [5]) | IC50 (MYB mRNA; [6]) | IC50 (HiBiT-tagged HTT protein) |
| --- | --- | --- | --- | --- | --- | --- | --- | --- | --- | --- | --- | --- |
| Cn1cc2c(F)cc(-n3cc4cc(C5CCNCC5)sc4n3)cc2n1 [Compound 174] | > 10000 nM | > 10000 nM | > 10000 nM | > 10000 nM | 1000 to 10000 nM | 1000 to 10000 nM | 1000 to 10000 nM | > 10000 nM | > 10000 nM | > 10000 nM | > 10000 nM | 1000 to 10000 nM |
| COc1c(-c2cc3cn(C4CCNCC4)nc3s2)nn2cc(C)nc(C)c12 [Compound 219, 4-(5-{3-methoxy-4,6-dimethylpyrazolo[1,5-a]pyrazin-2-yl}thieno[2,3-c]pyrazol-2-yl) piperidine] | > 10000 nM | > 10000 nM | > 10000 nM | > 10000 nM | > 10000 nM | 1000 to 10000 nM | 1000 to 10000 nM | > 10000 nM | > 10000 nM | > 10000 nM | > 10000 nM | > 10000 nM |
| CN(c1cc2nn(-c3ccc(-c4cn[nH]c4)cc3O)cc2s1)[C@@H]1C[C@H]2CC[C@@H](C1)N2 [Compound 148, 2-[5-[(1R,3R,5S)-8-azabicyclo[3.2.1]octan-3-yl(methyl)amino]thieno[3,2-c]pyrazol-2-yl]-5-(1H-pyrazol-4-yl)phenol] | 1000 to 10000 nM | 1000 to 10000 nM | 1000 to 10000 nM | 1000 to 10000 nM | 1000 to 10000 nM | 1000 to 10000 nM | 1000 to 10000 nM | > 10000 nM | 1000 to 10000 nM | > 10000 nM | 1000 to 10000 nM | 1000 to 10000 nM |
| Cc1cn2cc(-c3cc4cn(C5CCNCC5)nc4s3)nc(C)c2n1 [Compound 228] | 1000 to 10000 nM | 100 to 1000 nM | 100 to 1000 nM | 100 to 1000 nM | 1000 to 10000 nM | 1000 to 10000 nM | 100 to 1000 nM | 1000 to 10000 nM | 1000 to 10000 nM | 1000 to 10000 nM | 1000 to 10000 nM | 100 to 1000 nM |
| Cn1cc2cc(-c3cc4cn(C5CCNCC5)nc4s3)c(C#N)cc2n1 [Compound 211] | 1000 to 10000 nM | 1000 to 10000 nM | 1000 to 10000 nM | 1000 to 10000 nM | 1000 to 10000 nM | 1000 to 10000 nM | 100 to 1000 nM | 1000 to 10000 nM | 1000 to 10000 nM | 1000 to 10000 nM | 1000 to 10000 nM | 100 to 1000 nM |

Next, values leading:

| IC50 (Target C) | EC50 (HTT mRNA; [2]) | IC50 (HTT mRNA; [3]) | IC50 (HTT mRNA; [4]) | IC50 (HiBiT-tagged MYB protein) | IC50 [1] | IC50 (SMN2 mRNA) | IC50 (Target C mRNA) | EC50 (MYB mRNA; [2]) | IC50 (MYB mRNA; [5]) | IC50 (MYB mRNA; [6]) | IC50 (HiBiT-tagged HTT protein) | SMILES |
| --- | --- | --- | --- | --- | --- | --- | --- | --- | --- | --- | --- | --- |
| 100 to 1000 nM | < 100 nM | < 100 nM | < 100 nM | 100 to 1000 nM | 100 to 1000 nM | < 100 nM | 100 to 1000 nM | 100 to 1000 nM | 100 to 1000 nM | 100 to 1000 nM | < 100 nM | Cn1cc2cc(-c3cc4cn(C5CCNCC5)nc4s3)c(F)cc2n1 [Compound 210] |
| 100 to 1000 nM | < 100 nM | < 100 nM | < 100 nM | 100 to 1000 nM | 100 to 1000 nM | < 100 nM | 100 to 1000 nM | 1000 to 10000 nM | 100 to 1000 nM | 1000 to 10000 nM | < 100 nM | Cc1cn2cc(-n3cc4cc(C5CCNCC5)sc4n3)cc(Cl)c2n1 [Compound 165] |
| 100 to 1000 nM | < 100 nM | < 100 nM | < 100 nM | 100 to 1000 nM | 1000 to 10000 nM | < 100 nM | 100 to 1000 nM | 100 to 1000 nM | 100 to 1000 nM | 100 to 1000 nM | < 100 nM | Cn1cc2cc(-c3cc4cn([C@@H]5CCNC[C@H]5F)nc4s3)cc(F)c2n1 [Compound 187] |
